# Measurements: paper PMC10762035, “Molecular basis of human trace amine-associated receptor 1 activation” (Nature Communications, 2024)
# Positions count from the first letter of the chain named. Several values for one entry are separate records, joined by “and”; a condition that tells them apart may be missing. Equal values may be shown once. Read-outs that look alike come from different tables or passages of the source.
# What was measured:
# hTA1 V184P = molecular target: T1, hTA1 V184P (Homo sapiens, UniProt Q96RJ0, V184P); test: GloSensor cAMP accumulation assay, V184P mutant; type: cell-based; details: for cAMP accumulation response, single replicate values (source data, Supplementary Figure 5): hTA1 V184P (N=2), log[Compound]
# T1 construct: expressed in transfected cells; host or cells: HEK293T
# T1 sequence (Q96RJ0 1-339 V184P): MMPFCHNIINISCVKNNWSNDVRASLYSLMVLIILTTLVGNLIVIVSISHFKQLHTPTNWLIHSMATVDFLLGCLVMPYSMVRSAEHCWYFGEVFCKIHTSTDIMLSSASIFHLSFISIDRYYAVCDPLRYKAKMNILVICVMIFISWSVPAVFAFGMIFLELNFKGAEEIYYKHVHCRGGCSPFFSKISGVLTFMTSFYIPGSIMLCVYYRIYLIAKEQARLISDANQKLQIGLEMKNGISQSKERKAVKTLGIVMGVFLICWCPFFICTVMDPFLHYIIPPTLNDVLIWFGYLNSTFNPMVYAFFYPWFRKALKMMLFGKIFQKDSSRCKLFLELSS
# hTA1 C178S = molecular target: T2, hTA1 C178S (Homo sapiens, UniProt Q96RJ0, C178S); test: GloSensor cAMP accumulation assay, C178S mutant; type: cell-based; details: for C178S - Normalized Luminescence Counts (N=2): log[Compound], single replicates
# T2 construct: expressed in transfected cells; host or cells: HEK293T
# T2 sequence (Q96RJ0 1-339 C178S): T1 sequence (Q96RJ0 1-339 V184P) with C178S, P184V
# hTA1 b2N = molecular target: T3, hTA1 b2N (Homo sapiens, UniProt Q96RJ0); test: GloSensor cAMP accumulation assay, b2N construct; type: cell-based
# T3 construct: read by me as the first 25 residues of β2AR (N); expressed in transfected cells; host or cells: HEK293T
# hTA1 R83H = molecular target: T4, hTA1 R83H (Homo sapiens, UniProt Q96RJ0, R83H); test: GloSensor cAMP accumulation assay, R83H mutant; type: cell-based;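 also: cells transiently co-expressing hTA1 and a cAMP GloSensor, luminescence read 30 min after agonist addition at room temperature, concentration–response fitted by non-linear regression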
# T4 construct: expressed in transfected cells; host or cells: HEK293T
# T4 sequence (Q96RJ0 1-339 R83H): T1 sequence (Q96RJ0 1-339 V184P) with R83H, P184V
# hTA1 T194A = molecular target: T5, hTA1 T194A (Homo sapiens, UniProt Q96RJ0, T194A); test: GloSensor cAMP accumulation assay, T194A mutant
# T5 sequence (Q96RJ0 1-339 T194A): T1 sequence (Q96RJ0 1-339 V184P) with P184V, T194A
# [1] = read-out: Span ± SEM (Emax normalized to β-PEA)
# T3 sequence (Q96RJ0 with tags, fused parts or gaps): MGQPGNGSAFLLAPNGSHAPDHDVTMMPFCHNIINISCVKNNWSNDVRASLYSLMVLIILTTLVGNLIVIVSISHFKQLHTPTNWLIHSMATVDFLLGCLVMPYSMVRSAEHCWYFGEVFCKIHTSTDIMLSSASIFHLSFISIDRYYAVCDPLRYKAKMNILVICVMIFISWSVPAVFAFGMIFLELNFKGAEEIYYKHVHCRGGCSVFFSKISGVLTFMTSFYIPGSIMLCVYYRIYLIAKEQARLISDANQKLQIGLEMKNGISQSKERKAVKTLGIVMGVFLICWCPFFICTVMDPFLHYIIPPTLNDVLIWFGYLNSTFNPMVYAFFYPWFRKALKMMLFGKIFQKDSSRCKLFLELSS
structure (smiles),measurement,setting,value
CCC(CC1COC(N)=N1)c1ccccc1 (stereo not shown) [Ro5256390],"cAMP accumulation response, single replicate values (source data, Supplementary Figure 5)",hTA1 V184P; M = -5,85.3904 and 101.684 and 66.3809 and 100.697 and 92.817 and 97.6917
same,"cAMP accumulation response, single replicate values (source data, Supplementary Figure 5)",hTA1 V184P; M = -5.522,66.0899 and 55.7123 and 71.6182 and 88.7852 and 51.5463 and 90.3979
same,"cAMP accumulation response, single replicate values (source data, Supplementary Figure 5)",hTA1 V184P; M = -6,83.0627 and 77.3404 and 73.6549 and 87.3191 and 55.1749 and 91.0943
same,"cAMP accumulation response, single replicate values (source data, Supplementary Figure 5)",hTA1 V184P; M = -6.522,79.7651 and 75.3037 and 85.0024 and 81.1248 and 49.1639 and 85.8896
same,"cAMP accumulation response, single replicate values (source data, Supplementary Figure 5)",hTA1 V184P; M = -7,89.6578 and 72.685 and 93.7313 and 87.2824 and 64.0448 and 74.7473
same,"cAMP accumulation response, single replicate values (source data, Supplementary Figure 5)",hTA1 V184P; M = -7.522,94.3132 and 66.4779 and 74.3338 and 84.4969 and 64.0814 and 78.046
same,"cAMP accumulation response, single replicate values (source data, Supplementary Figure 5)",hTA1 V184P; M = -8,62.0164 and 54.6454 and 40.6793 and 78.3026 and 66.3539 and 77.7161
same,"cAMP accumulation response, single replicate values (source data, Supplementary Figure 5)",hTA1 V184P; M = -8.522,37.1877 and 24.6764 and 37.2847 and 29.115 and 34.8328 and 41.87
same,"cAMP accumulation response, single replicate values (source data, Supplementary Figure 5)",hTA1 V184P; M = -9,15.9475 and 18.9541 and 11.3891 and 32.8169 and 25.9629 and 26.2194
same,"cAMP accumulation response, single replicate values (source data, Supplementary Figure 5)",hTA1 V184P; M = -9.522,4.018 and 3.436 and 4.212 and 11.3752 and 7.6 and 9.799
same,"cAMP accumulation response, single replicate values (source data, Supplementary Figure 5)",hTA1 V184P; M = -10,0.7205 and 0.9145 and 0.5265 and 3.678 and 2.945 and 4.778
same,"cAMP accumulation response, single replicate values (source data, Supplementary Figure 5)",hTA1 V184P; M = -10.522,-0.3463 and -0.9283 and 0.2356 and 0.1229 and 0.08625 and 0.5627
same,"cAMP accumulation response, single replicate values (source data, Supplementary Figure 5)",hTA1 V184P; M = -11,-1.316 (2×) and -1.4132 and 1.516 and -0.5368 and 1.039
same,"cAMP accumulation response, single replicate values (source data, Supplementary Figure 5)",hTA1 V184P; M = -11.522,-1.51 and -1.219 and -1.704 and 2.615 and 1.516 and 1.552
same,"cAMP accumulation response, single replicate values (source data, Supplementary Figure 5)",hTA1 V184P; M = -12,-1.316 and -1.51 and -1.801 and 15.6269 and 16.9097 and 12.5114
same,"cAMP accumulation response, single replicate values (source data, Supplementary Figure 5)",hTA1 V184P; M = -12.522,-1.4132 and -1.51 and -0.9283 and 2.505 and 1.149 and 1.736
same,"ΔpEC50 values (each mutant value - WT average), Mean",hTA1 V184P; hTA1 V184P mutant minus WT average,0.1338 and 0.2823
same,"Emax values, Mean","hTA1 V184P; hTA1 V184P mutant, β-PEA set to 100, each grid row a separate experiment, 3 replicates",78.2024
same,EC50,"hTA1 V184P; pEC50 values (Mean), hTA1 V184P mutant, Figure 3B source data, each grid row a separate experiment, 3 replicates",3.92 nM and 2.79 nM
same,EC50,"hTA1 V184P; pEC50 ± SEM, V184P, n=2",3.31 nM
same,Emax,"hTA1 V184P; read-out: Emax values (Mean), hTA1 V184P mutant, β-PEA set to 100, each grid row a separate experiment, 3 replicates",81.5%
same,Emax,"hTA1 V184P; read-out: Span ± SEM (Emax normalized to β-PEA), V184P, n=2",79.8 ± 1.63%
same,"ΔpEC50 values (each mutant value - WT average), Mean","hTA1 C178S; C178S, each row one experiment (N=2), 3 replicates",-0.5545 and -0.2923
same,Emax,"hTA1 C178S; C178S, relative to β-PEA",120%
same,"Emax values, Mean","hTA1 C178S; C178S, β-PEA = 100, each row one experiment (N=2), 3 replicates",104.356 and 134.792
same,EC50,"hTA1 C178S; EC50, C178S, n=2",14.1 nM
same,C178S - Normalized Luminescence Counts (N=2),hTA1 C178S; M = -5,102.446 and 115.063 and 100.063 and 98.247 and 134.327 and 139.921
same,C178S - Normalized Luminescence Counts (N=2),hTA1 C178S; M = -5.522,112.587 and 101.839 and 98.2408 and 148.866 and 141.178 and 145.097
same,C178S - Normalized Luminescence Counts (N=2),hTA1 C178S; M = -6,99.8763 and 105.203 and 90.1566 and 163.316 and 171.125 and 157.632
same,C178S - Normalized Luminescence Counts (N=2),hTA1 C178S; M = -6.522,110.577 and 98.2408 and 97.8202 and 140.041 and 136.93 and 126.219
same,C178S - Normalized Luminescence Counts (N=2),hTA1 C178S; M = -7,89.6425 and 86.2313 and 90.5771 and 109.526 and 118.68 and 112.368
same,C178S - Normalized Luminescence Counts (N=2),hTA1 C178S; M = -7.522,61.5581 and 68.0535 and 67.1189 and 100.042 and 97.9478 and 96.7511
same,C178S - Normalized Luminescence Counts (N=2),hTA1 C178S; M = -8,35.9971 and 29.5951 and 33.2867 and 60.9705 and 68.8087 and 90.3489
same,C178S - Normalized Luminescence Counts (N=2),hTA1 C178S; M = -8.522,17.2585 and 16.3239 and 17.6791 and 41.704 and 41.2253 and 41.0458
same,C178S - Normalized Luminescence Counts (N=2),hTA1 C178S; M = -9,9.361 and 5.296 and 6.978 and 20.7921 and 25.9976 and 27.6132
same,C178S - Normalized Luminescence Counts (N=2),hTA1 C178S; M = -9.522,1.184 and 0.9499 and 2.959 and 8.825 and 6.193 and 11.0392
same,C178S - Normalized Luminescence Counts (N=2),hTA1 C178S; M = -10,1.651 and 2.539 and 1.885 and 5.9234 and 4.278 and 6.671
same,C178S - Normalized Luminescence Counts (N=2),hTA1 C178S; M = -10.522,0.4359 and -0.07812 and -0.265 and 1.256 and 0.02978 and 1.197
same,C178S - Normalized Luminescence Counts (N=2),hTA1 C178S; M = -11,0.9499 and 0.763 and 0.2957 and 5.146 and 2.064 and 5.0259
same,C178S - Normalized Luminescence Counts (N=2),hTA1 C178S; M = -11.522,-0.4987 and 1.2303 and -0.03139 and 3.65 and 2.333 and 2.932
same,C178S - Normalized Luminescence Counts (N=2),hTA1 C178S; M = -12,0.2023 and 1.184 and 0.4359 and 4.098 and 3.021 and 6.312
same,C178S - Normalized Luminescence Counts (N=2),hTA1 C178S; M = -12.522,0.2023 and -0.1249 and -0.03139 and 3.321 and 2.124 and 7.958
same,EC50,"hTA1 C178S; pEC50 values, Mean, C178S, each row one experiment (N=2), 3 replicates",19.1 nM and 10.5 nM
same,Emax,"hTA1 C178S; read-out: Span ± SEM (Emax normalized to β-PEA), C178S, n=2",120%
same,EC50,hTA1 b2N,1.56 nM
same,Emax,hTA1 b2N; [1],97.7 ± 9.34%
same,EC50,"hTA1 R83H; EC50, R83H, n=2",5.19 nM
same,ΔEmax values (each mutant value - WT average),hTA1 R83H; R83H mutant minus WT average,-44.6015
same,ΔpEC50 values (each mutant value - WT average),hTA1 R83H; R83H mutant minus WT average,-0.01027 and 0.0342
same,"Emax values, Mean","hTA1 R83H; R83H mutant, β-PEA = 100, each line an independent experiment, 3 replicates",58.7027 and 38.4174
same,EC50,"hTA1 R83H; pEC50 values (Mean), R83H mutant, each line an independent experiment, 3 replicates",5.46 nM and 4.93 nM
same,Emax,"hTA1 R83H; read-out: Span ± SEM (Emax normalized to β-PEA), R83H, n=2",48.6 ± 10.1%
same,EC50,"hTA1 T194A; EC50, T194A",34.8 nM
same,"Emax values, Mean","hTA1 T194A; T149A (so in the source), single experiments (3 replicates each), β-PEA = 100",128.602 and 110.169 and 108.613
same,reduction in potency vs wild type,hTA1 T194A; T194A,over 5 fold
same,EC50,"hTA1 T194A; pEC50 values, Mean, T149A (so in the source), single experiments (3 replicates each)",34.8 nM and 27.7 nM and 14.2 nM
same,EC50,"hTA1 T194A; pEC50 ± SEM, T194A",24 nM
same,Emax,hTA1 T194A; [1],116 ± 9.22%
